Reference: patent US11795460B2, “Compositions and methods for TTR gene editing and treating ATTR amyloidosis” (Intellia Therapeutics, Inc., priority 2017, dated 2023)
Strand notation (5' to 3'): a small letter for the sugar, then the base; units joined by * are phosphorothioate-linked, units joined directly phosphodiester-linked; [ ] holds rarer units or linkages, { } end groups; capitals alone tell only the bases. m = 2'-O-methyl; r = 2'-OH (RNA)

Legend:
off-target genomic sites = assay: Off-target oligo insertion based assay in HEK293_Cas9 cells, dgRNAs and sgRNAs (Tables 23, 24); format: cell-based, human; conditions: for # Sites in HekCas9 cells (Example 5): Table 30, TTR sgRNAs, repeated from Example 5 for comparison
Summary of the method: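 In HEK293 cells constitutively expressing Spy Cas9, crRNA (15 nM) plus trRNA (15 nM), or modified sgRNAs, were lipofected with donor oligo (10 nM). Genomic DNA was collected at 24 h, and oligo-insertion libraries were sequenced on MiSeq/HiSeq to map potential off-target cleavage sites.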

TTR = TTR editing in primary human hepatocytes electroporated with Spy Cas9 protein loaded with dgRNAs (Table 7); format: cell-based; conditions: dgRNA electroporated with Spy Cas9 protein (RNP)
Summary of the method: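 Primary human or cynomolgus hepatocytes electroporated (Lonza P3 buffer, program EX-147) with Spy Cas9 RNP carrying pre-annealed crRNA/trRNA dual guides. Genomic DNA harvested at 24, 48 or 72 h; target amplicons sequenced by Illumina MiSeq. Percent editing = reads with indels or substitutions over total reads.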

[1] = Table 23, TTR dgRNAs in HekCas9 cells, oligo insertion based assay
[2] = Table 24, TTR sgRNAs in HekCas9 cells, insertion detection method

Molecule: AAAGGCUGCUGAUGACACCU (tested as dual guide RNA, chemistry not given here) [CR003353]
- # Sites (off-target integration sites detected) (off-target genomic sites; [1]): 2
- Avg % Deletion (TTR): 2.63%
- Avg % Edit (TTR): 84.83%
- Avg % Insert (TTR): 82.23%

Molecule: AAAGUUCUAGAUGCUGUCCG (tested as dual guide RNA, chemistry not given here) [CR003346]
- # Sites (off-target integration sites detected) (off-target genomic sites; [1]): 0
- Avg % Deletion (TTR): 14.83%
- Avg % Edit (TTR): 35.67%
- Avg % Insert (TTR): 20.83%

Molecule: AAAUAGACACCAAAUCUUAC (tested as dual guide RNA, chemistry not given here) [CR003366]
- # Sites (off-target integration sites detected) (off-target genomic sites; [1]): 1
- Avg % Deletion (TTR): 3.10%
- Avg % Edit (TTR): 34.70%
- Avg % Insert (TTR): 31.63%

Molecule: AAGUGCCUUCCAGUAAGAUU (tested as dual guide RNA, chemistry not given here) [CR003368]
- # Sites (off-target integration sites detected) (off-target genomic sites; [1]): 2
- Avg % Deletion (TTR): 0.80%
- Avg % Edit (TTR): 28.47%
- Avg % Insert (TTR): 27.63%

Molecule: ACACAAAUACCAGUCCAGCA (tested as dual guide RNA, chemistry not given here) [CR003339]
- # Sites (off-target integration sites detected) (off-target genomic sites; [1]): 3
- Avg % Deletion (TTR): 34.07%
- Avg % Edit (TTR): 43.00%
- Avg % Insert (TTR): 8.93%

Molecule: ACGUGUCUUCUCUACACCCA (tested as dual guide RNA, chemistry not given here) [CR005302]
- # Sites (off-target integration sites detected) (off-target genomic sites; [1]): 1
- Avg % Deletion (TTR): 1.00%
- Avg % Edit (TTR): 61.10%
- Avg % Insert (TTR): 60.10%

Molecule: ACUGAGGAGGAAUUUGUAGA (tested as dual guide RNA, chemistry not given here) [CR003363]
- # Sites (off-target integration sites detected) (off-target genomic sites; [1]): 4
- Avg % Deletion (TTR): 1.63%
- Avg % Edit (TTR): 9.43%
- Avg % Insert (TTR): 7.80%

Molecule: AGACACCAAAUCUUACUGGA (tested as dual guide RNA, chemistry not given here) [CR003367]
- # Sites (off-target integration sites detected) (off-target genomic sites; [1]): 1
- Avg % Deletion (TTR): 16.37%
- Avg % Edit (TTR): 39.20%
- Avg % Insert (TTR): 22.93%

Molecule: AGCCUUUCUGAACACAUGCA (tested as dual guide RNA, chemistry not given here) [CR003351]
- # Sites (off-target integration sites detected) (off-target genomic sites; [1]): 1
- Avg % Deletion (TTR): 20.97%
- Avg % Edit (TTR): 51.77%
- Avg % Insert (TTR): 30.83%

Molecule: AGGCAGUCCUGCCAUCAAUG (tested as dual guide RNA, chemistry not given here) [CR003348]
- # Sites (off-target integration sites detected) (off-target genomic sites; [1]): 3
- Avg % Deletion (TTR): 17.27%
- Avg % Edit (TTR): 28.53%
- Avg % Insert (TTR): 11.30%

Molecule: AGUCCCUCAUUCCUUGGGAU (tested as dual guide RNA, chemistry not given here) [CR003392]
- # Sites (off-target integration sites detected) (off-target genomic sites; [1]): 0
- Avg % Deletion (TTR): 0.17%
- Avg % Edit (TTR): 4.13%
- Avg % Insert (TTR): 4.00%

Molecule: AGUGAGUCUGGAGAGCUGCA (tested as dual guide RNA, chemistry not given here) [CR003359]
- # Sites (off-target integration sites detected) (off-target genomic sites; [1]): 6
- Avg % Deletion (TTR): 7.50%
- Avg % Edit (TTR): 63.77%
- Avg % Insert (TTR): 56.33%

B1: G000492: TTR sgRNA modified sequence, Human, SEQ ID No. 99; guide sequence of CR003342 (nucleic acid)
guide: mC*mU*mU*rCrUrCrUrArCrArCrCrCrArGrGrGrCrArCrGrUrUrUrUrArGrAmGmCmUmAmGmAmAmAmUmAmGmCrArArGrUrUrArArArArUrArArGrGrCrUrArGrUrCrCrGrUrUrArUrCrAmAmCmUmUmGmAmAmAmAmAmGmUmGmGmCmAmCmCmGmAmGmUmCmGmGmUmGmCmU*mU*mU*mU
- # Sites (off-target integration sites detected) (off-target genomic sites; [2]): 97
- # Sites in HekCas9 cells (Example 5) (off-target genomic sites): 97

B2: G000493: TTR sgRNA modified sequence, Human, SEQ ID No. 100; guide sequence of CR003368 (nucleic acid)
guide: mA*mA*mG*rUrGrCrCrUrUrCrCrArGrUrArArGrArUrUrGrUrUrUrUrArGrAmGmCmUmAmGmAmAmAmUmAmGmCrArArGrUrUrArArArArUrArArGrGrCrUrArGrUrCrCrGrUrUrArUrCrAmAmCmUmUmGmAmAmAmAmAmGmUmGmGmCmAmCmCmGmAmGmUmCmGmGmUmGmCmU*mU*mU*mU
- # Sites (off-target integration sites detected) (off-target genomic sites; [2]): 7
- # Sites in HekCas9 cells (Example 5) (off-target genomic sites): 7

B3: G000495: TTR sgRNA modified sequence, Human, SEQ ID No. 102; guide sequence of CR003343 (nucleic acid)
guide: mC*mA*mG*rArGrGrArCrArCrUrUrGrGrArUrUrCrArCrGrUrUrUrUrArGrAmGmCmUmAmGmAmAmAmUmAmGmCrArArGrUrUrArArArArUrArArGrGrCrUrArGrUrCrCrGrUrUrArUrCrAmAmCmUmUmGmAmAmAmAmAmGmUmGmGmCmAmCmCmGmAmGmUmCmGmGmUmGmCmU*mU*mU*mU
- # Sites (off-target integration sites detected) (off-target genomic sites; [2]): 13
- # Sites in HekCas9 cells (Example 5) (off-target genomic sites): 13

B4: G000496: TTR sgRNA modified sequence, Human, SEQ ID No. 103; guide sequence of CR005304 (nucleic acid)
guide: mG*mG*mC*rCrGrUrGrCrArUrGrUrGrUrUrCrArGrArArGrUrUrUrUrArGrAmGmCmUmAmGmAmAmAmUmAmGmCrArArGrUrUrArArArArUrArArGrGrCrUrArGrUrCrCrGrUrUrArUrCrAmAmCmUmUmGmAmAmAmAmAmGmUmGmGmCmAmCmCmGmAmGmUmCmGmGmUmGmCmU*mU*mU*mU
- # Sites (off-target integration sites detected) (off-target genomic sites; [2]): 1
- # Sites in HekCas9 cells (Example 5) (off-target genomic sites): 1

B5: G000497: TTR sgRNA modified sequence, Human, SEQ ID No. 104; guide sequence of CR003335 (nucleic acid)
guide: mC*mU*mG*rCrUrCrCrUrCrCrUrCrUrGrCrCrUrUrGrCrGrUrUrUrUrArGrAmGmCmUmAmGmAmAmAmUmAmGmCrArArGrUrUrArArArArUrArArGrGrCrUrArGrUrCrCrGrUrUrArUrCrAmAmCmUmUmGmAmAmAmAmAmGmUmGmGmCmAmCmCmGmAmGmUmCmGmGmUmGmCmU*mU*mU*mU
- # Sites (off-target integration sites detected) (off-target genomic sites; [2]): 26
- # Sites in HekCas9 cells (Example 5) (off-target genomic sites): 26

B6: G000498: TTR sgRNA modified sequence, Human, SEQ ID No. 105; guide sequence of CR003359 (nucleic acid)
guide: mA*mG*mU*rGrArGrUrCrUrGrGrArGrArGrCrUrGrCrArGrUrUrUrUrArGrAmGmCmUmAmGmAmAmAmUmAmGmCrArArGrUrUrArArArArUrArArGrGrCrUrArGrUrCrCrGrUrUrArUrCrAmAmCmUmUmGmAmAmAmAmAmGmUmGmGmCmAmCmCmGmAmGmUmCmGmGmUmGmCmU*mU*mU*mU
- # Sites (off-target integration sites detected) (off-target genomic sites; [2]): 82
- # Sites in HekCas9 cells (Example 5) (off-target genomic sites): 82

B7: G000500: TTR sgRNA modified sequence, Human, SEQ ID No. 107; guide sequence of CR003337 (nucleic acid)
guide: mC*mC*mA*rGrUrCrCrArGrCrArArGrGrCrArGrArGrGrGrUrUrUrUrArGrAmGmCmUmAmGmAmAmAmUmAmGmCrArArGrUrUrArArArArUrArArGrGrCrUrArGrUrCrCrGrUrUrArUrCrAmAmCmUmUmGmAmAmAmAmAmGmUmGmGmCmAmCmCmGmAmGmUmCmGmGmUmGmCmU*mU*mU*mU
- # Sites (off-target integration sites detected) (off-target genomic sites; [2]): 46
- # Sites in HekCas9 cells (Example 5) (off-target genomic sites): 46

B8: G000501: TTR sgRNA modified sequence, Human, SEQ ID No. 108; guide sequence of CR005300 (nucleic acid)
guide: mU*mC*mA*rCrArGrArArArCrArCrUrCrArCrCrGrUrArGrUrUrUrUrArGrAmGmCmUmAmGmAmAmAmUmAmGmCrArArGrUrUrArArArArUrArArGrGrCrUrArGrUrCrCrGrUrUrArUrCrAmAmCmUmUmGmAmAmAmAmAmGmUmGmGmCmAmCmCmGmAmGmUmCmGmGmUmGmCmU*mU*mU*mU
- # Sites (off-target integration sites detected) (off-target genomic sites; [2]): 4
- # Sites in HekCas9 cells (Example 5) (off-target genomic sites): 4

B9: G000567: TTR sgRNA modified sequence, Human, SEQ ID No. 109; guide sequence of CR003352 (nucleic acid)
guide: mG*mA*mA*rArGrGrCrUrGrCrUrGrArUrGrArCrArCrCrGrUrUrUrUrArGrAmGmCmUmAmGmAmAmAmUmAmGmCrArArGrUrUrArArArArUrArArGrGrCrUrArGrUrCrCrGrUrUrArUrCrAmAmCmUmUmGmAmAmAmAmAmGmUmGmGmCmAmCmCmGmAmGmUmCmGmGmUmGmCmU*mU*mU*mU
- # Sites (off-target integration sites detected) (off-target genomic sites; [2]): 9
- # Sites in HekCas9 cells (Example 5) (off-target genomic sites): 9

B10: G000568: TTR sgRNA modified sequence, Human, SEQ ID No. 110; guide sequence of CR003391 (nucleic acid)
guide: mG*mG*mC*rUrGrUrCrGrUrCrArCrCrArArUrCrCrCrArGrUrUrUrUrArGrAmGmCmUmAmGmAmAmAmUmAmGmCrArArGrUrUrArArArArUrArArGrGrCrUrArGrUrCrCrGrUrUrArUrCrAmAmCmUmUmGmAmAmAmAmAmGmUmGmGmCmAmCmCmGmAmGmUmCmGmGmUmGmCmU*mU*mU*mU
- # Sites (off-target integration sites detected) (off-target genomic sites; [2]): 937
- # Sites in HekCas9 cells (Example 5) (off-target genomic sites): 936

B11: G000570: TTR sgRNA modified sequence, Human, SEQ ID No. 111; guide sequence of CR003347 (nucleic acid)
guide: mC*mA*mU*rUrGrArUrGrGrCrArGrGrArCrUrGrCrCrUrGrUrUrUrUrArGrAmGmCmUmAmGmAmAmAmUmAmGmCrArArGrUrUrArArArArUrArArGrGrCrUrArGrUrCrCrGrUrUrArUrCrAmAmCmUmUmGmAmAmAmAmAmGmUmGmGmCmAmCmCmGmAmGmUmCmGmGmUmGmCmU*mU*mU*mU
- # Sites (off-target integration sites detected) (off-target genomic sites; [2]): 19
- # Sites in HekCas9 cells (Example 5) (off-target genomic sites): 19

B12: G000571: TTR sgRNA modified sequence, Human, SEQ ID No. 112; guide sequence of CR005301 (nucleic acid)
guide: mG*mU*mC*rArCrArGrArArArCrArCrUrCrArCrCrGrUrGrUrUrUrUrArGrAmGmCmUmAmGmAmAmAmUmAmGmCrArArGrUrUrArArArArUrArArGrGrCrUrArGrUrCrCrGrUrUrArUrCrAmAmCmUmUmGmAmAmAmAmAmGmUmGmGmCmAmCmCmGmAmGmUmCmGmGmUmGmCmU*mU*mU*mU
- # Sites (off-target integration sites detected) (off-target genomic sites; [2]): 16
- # Sites in HekCas9 cells (Example 5) (off-target genomic sites): 16

B13: G000572: TTR sgRNA modified sequence, Human, SEQ ID No. 113; guide sequence of CR003385 (nucleic acid)
guide: mC*mC*mC*rCrUrArCrUrCrCrUrArUrUrCrCrArCrCrArGrUrUrUrUrArGrAmGmCmUmAmGmAmAmAmUmAmGmCrArArGrUrUrArArArArUrArArGrGrCrUrArGrUrCrCrGrUrUrArUrCrAmAmCmUmUmGmAmAmAmAmAmGmUmGmGmCmAmCmCmGmAmGmUmCmGmGmUmGmCmU*mU*mU*mU
- # Sites (off-target integration sites detected) (off-target genomic sites; [2]): 15
- # Sites in HekCas9 cells (Example 5) (off-target genomic sites): 15
